From patent US8871681B2, “Herbicidal compositions comprising 4-amino-3-chloro-5-fluoro-6-(4-chloro-2-fluoro-3-methoxyphenyl) pyridine-2-carboxylic acid or a derivative thereof and certain sulfonylureas” (Dow AgroSciences LLC, priority 2012, dated 2014)

How the values were obtained:
[1] = test system: SCPJU (Schoenoplectus juncoides, Japanese bulrush); experiment: Postemergence foliar-applied weed control, direct seeded rice, greenhouse (Example I); type: in vivo, Schoenoplectus juncoides (Roxb.) Palla; conditions: 21 DAA
Description: Seeds or nutlets of the desired test plant species were planted in a soil matrix prepared by mixing a loam or sandy loam soil (e.g., 28.6 percent silt, 18.8 percent clay, and 52.6 percent sand, with a pH of about 5.8 and an organic matter content of about 1.8 percent) and calcareous grit in an 80 to 20 ratio. The soil matrix was contained in plastic pots with a volume of 1 quart and a surface area of 83.6 square centimeters (cm^2). When required to ensure good germination and healthy plants, a fungicide treatment and/or other chemical or physical treatment was applied. The plants were grown for 8-22 days in a greenhouse with an approximate 14 h photoperiod which was maintained at about 29° C. during the day and 26° C. during the night. Nutrients (Peters Excel® 15-5-15 5-Ca 2-Mg and iron chelate) were applied in the irrigation solution as needed and water was added on a regular basis. Supplemental lighting was provided with overhead metal halide 1000-Watt lamps as necessary. The plants were employed for testing when they reached the first through fourth true leaf stage.
Treatments consisted of the acid or esters of 4-amino-3-chloro-5-fluoro-6-(4-chloro-2-fluoro-3-methoxy-phenyl)pyridine-2-carboxylic acid (Compound A), each formulated as an SC, and various herbicidal components alone and in combination. Forms of compound A were applied on an acid equivalent basis. […]
Treatment requirements were calculated based upon the rates being tested, the concentration of active ingredient or acid equivalent in the formulation, and a 12 mL application volume at a rate of 187 L/ha.
For treatments comprised of formulated compounds, measured amounts of compounds were placed individually in 25 mL glass vials and diluted in a volume of 1.25% (v/v) Agri-Dex® crop oil concentrated to obtain 12× stock solutions. […]
For treatments comprised of formulated and technical compounds, weighed amounts of the technical materials were placed individually in 25 mL glass vials and dissolved in a volume of 97:3 v/v acetone/DMSO to obtain 12× stock solutions, and measured amounts of the formulated compounds were placed individually in 25 mL glass vials and diluted in a volume of 1.25% (v/v) crop oil concentrate to obtain 12× stock solutions. […]

[2] = test system: CIRAR (Cirsium arvense, Canada thistle); experiment: Post-emergence foliar-applied weed control in cereal crops, greenhouse (Example III); type: in vivo, Cirsium arvense (L.) Scop.
Summary of the method: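 Greenhouse plants at the second or third true leaf stage (14 hour photoperiod, about 18/17 °C) were track-sprayed at 187 L/ha with Compound A SC, a second cereal herbicide, or their combinations, using 1.25% v/v crop oil concentrate. Injury was scored visually at 20-22 days against solvent-blank controls on a 0–100% scale. Expected mixture effects were calculated with Colby's equation.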

SMILES: COc1c(Cl)ccc(-c2nc(C(=O)OCc3ccccc3)c(Cl)c(N)c2F)c1F [Compound A Benzyl Ester]
- Visual Weed Control (%) Obs ([1]; 4.38 gae/ha): 40%
- pest or weed control at 8.75 g/ha ([2]; Cirsium arvense, post-emergence, read-out: Weed Control CIRAR Obs): 40%
- Weed Control CIRAR Obs ([2]; Table 53, foliar-applied, after 20-22 days, 8.75 gai/ha alone): 40%
- Weed Control CIRAR Obs ([2]; Table 54, foliar-applied, after 20-22 days, 8.75 gai/ha alone): 40%
- Weed Control CIRAR Obs ([2]; Table 55, foliar-applied, after 20-22 days, 8.75 gai/ha alone): 40%
- Weed Control CIRAR Obs ([2]; Table 56, foliar-applied, after 20-22 days, 8.75 gai/ha alone): 40%
- Weed Control CIRAR Obs ([2]; Table 57, foliar-applied, after 20-22 days, 8.75 gai/ha Compound A Benzyl Ester alone): 40%
- Weed Control CIRAR Obs ([2]; Table 58 (cereal), foliar-applied, after 20-22 days, 8.75 gai/ha alone): 40%
- Weed Control CIRAR Obs ([2]; Table 59 (cereal), foliar-applied, after 20-22 days, 8.75 gai/ha alone): 40%

SMILES: COCC(=O)OC(c1ncccc1S(=O)(=O)NC(=O)Nc1nc(OC)cc(OC)n1)C(C)F (stereo not shown) [Flucetosulfuron, 1-[3-[[[[(4,6-dimethoxy-2-pyrimidinyl)amino]carbonyl]amino]sulfonyl]-2-pyridinyl]-2-fluoropropyl 2-methoxyacetate]
- Visual Weed Control (%) Obs ([1]; 0.05 gai/ha): 95%
- Visual Weed Control (%) Obs ([1]; 0.1 gai/ha): 50%
- Visual Weed Control (%) Obs ([1]; 0.2 gai/ha): 30%

SMILES: COC(=O)c1ccccc1S(=O)(=O)NC(=O)Nc1nc(C)nc(OC)n1 [Metsulfuron-methyl, methyl 2-[[[[(4-methoxy-6-methyl-1,3,5-triazin-2-yl)amino]carbonyl]amino]sulfonyl]benzoate, reference compound]
- pest or weed control at 1.1 g/ha ([2]; Cirsium arvense, post-emergence, Table 56, foliar-applied, after 20-22 days, 1.1 gai/ha alone, read-out: Weed Control CIRAR Obs): 65%
